Measured values taken from patent US11999727B2 (Tango Therapeutics, Inc., priority 2020, dated 2024).

Tests used:
[1] = test system: HAP1 MTAP-deleted cell line; experiment: SDMA in-cell western assay, HAP1 MTAP-deleted; assay type: cell-based; details: for IC50: Homo sapiens, HAP1, SDMA in-cell western, HAP1 MTAP-deleted, read-out: HAP 1 MTAP deleted IC50; for MTAP intact/deleted ratio: IC50 ratio HAP1 MTAP-intact / HAP1 MTAP-deleted, SDMA in-cell western
Method in brief: (§1)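 Compounds were tested in HAP1 cells differing only in MTAP status (endogenous expression versus null). Cellular SDMA levels were then measured by in-cell western, giving an IC50 in each background.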

[2] = test system: HAP1 MTAP-intact cell line; experiment: SDMA in-cell western assay, HAP1 MTAP-intact; assay type: cell-based; details: Homo sapiens, HAP1, SDMA in-cell western, HAP1 MTAP-intact; read-out: MTAP HAP1 intact IC50
Method in brief: as §1

[3] = test system: HAP1 MTAP-deleted cell line; experiment: Viability assay, MTAP-deleted cell line; assay type: cell-based; details: Homo sapiens, HAP1, viability assay, MTAP-deleted cell line; read-out: HAP1 MTAP deleted viability
From the text: Table 1 additionally indicates IC50 values in a viability assay for the MTAP-deleted cell line (column 10), indicating the effect of treatment with compound on cell survival.

[4] = biological target: T1, PRMT5 (Homo sapiens, UniProt O14744); experiment: PRMT5 biochemical IC50 assay with MTA as cofactor; details: PRMT5, MTA as cofactor; read-out: MTA IC50
T1 construct: purchased Viva (custom protein)
T1 sequence (O14744 whole entry): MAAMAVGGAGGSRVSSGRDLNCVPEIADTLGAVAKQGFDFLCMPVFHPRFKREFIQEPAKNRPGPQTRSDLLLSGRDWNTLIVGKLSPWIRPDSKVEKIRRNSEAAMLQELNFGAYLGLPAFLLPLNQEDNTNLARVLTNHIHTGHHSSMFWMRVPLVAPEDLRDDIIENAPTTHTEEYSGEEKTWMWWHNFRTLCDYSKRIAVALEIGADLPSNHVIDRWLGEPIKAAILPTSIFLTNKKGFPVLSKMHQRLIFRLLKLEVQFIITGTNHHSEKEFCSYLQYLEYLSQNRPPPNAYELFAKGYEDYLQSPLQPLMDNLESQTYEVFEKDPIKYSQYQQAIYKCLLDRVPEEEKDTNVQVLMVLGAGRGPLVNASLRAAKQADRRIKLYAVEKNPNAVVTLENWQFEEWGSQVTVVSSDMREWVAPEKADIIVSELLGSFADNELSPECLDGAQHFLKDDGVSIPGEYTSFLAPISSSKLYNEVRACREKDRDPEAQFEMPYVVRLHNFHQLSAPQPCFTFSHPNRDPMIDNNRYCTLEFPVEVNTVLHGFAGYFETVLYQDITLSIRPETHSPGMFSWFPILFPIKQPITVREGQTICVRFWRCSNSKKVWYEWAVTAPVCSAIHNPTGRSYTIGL
T1 sequence (Q9BQA1 whole entry partner): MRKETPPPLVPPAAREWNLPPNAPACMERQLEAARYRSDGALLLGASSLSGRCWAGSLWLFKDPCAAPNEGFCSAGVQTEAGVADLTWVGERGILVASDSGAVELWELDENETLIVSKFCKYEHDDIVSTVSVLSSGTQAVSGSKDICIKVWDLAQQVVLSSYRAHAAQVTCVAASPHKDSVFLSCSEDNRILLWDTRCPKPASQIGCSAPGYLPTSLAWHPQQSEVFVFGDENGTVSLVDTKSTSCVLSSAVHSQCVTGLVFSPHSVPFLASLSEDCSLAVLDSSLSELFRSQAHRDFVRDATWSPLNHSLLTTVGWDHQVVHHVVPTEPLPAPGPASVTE

[5] = biological target: T1, PRMT5; experiment: PRMT5 biochemical IC50 assay with no cofactor; details: PRMT5, no cofactor; read-out: No Cofactor/ rel IC50
From the text: Table 1 indicates IC50 values (μM) against PRMT5 for exemplary compounds in the presence of SAM as cofactor, with no cofactor, and with MTA as cofactor, respectively (columns 4-6). […] Ki values can be calculated from the IC50 values as described in the Examples section. As detailed in the Examples section, for the assay performed in the presence of SAM, IC50=Ki×1.5 (Ki=IC50/1.5).

[6] = biological target: T1, PRMT5; experiment: PRMT5 biochemical IC50 assay with SAM as cofactor; details: PRMT5, SAM as cofactor; read-out: SAM IC50

| Structure (SMILES) | IC50 [1] | MTAP intact/deleted ratio [1] | IC50 [2] | IC50 [3] | IC50 [4] | IC50 [5] | IC50 [6] |
| --- | --- | --- | --- | --- | --- | --- | --- |
| Cc1csc(C2CCCCN2C(=O)C(=O)Nc2cnc(N)c(C)c2)n1 (centres unmarked) [Compound 49, N-(6-Amino-5-methyl-3-pyridyl)-2-[2-(4-methylthiazol-2-yl)-1-piperidyl]-2-oxo-acetamide] | 100 to 1000 nM | A (an IC50 ratio greater than or equal to 10 fold) | > 1000 nM | > 10000 nM | < 50 nM | 50 to 500 nM | 50 to 500 nM |
| Cc1cc(NC(=O)C(=O)N2CCCCC2C2CCCC2)cnc1N (centres unmarked) [Compound 61, N-(6-amino-5-methyl-3-pyridyl)-2-(2-cyclopentyl-1-piperidyl)-2-oxo-acetamide] | < 100 nM | A (an IC50 ratio greater than or equal to 10 fold) | > 1000 nM | 1000 to 10000 nM | 50 to 500 nM | 50 to 500 nM | > 500 nM |
| CC(C)C1CCCCN1C(=O)C(=O)Nc1cncc(C(N)=O)c1 (centres unmarked) [Compound 100, 5-[[2-(2-isopropyl-1-piperidyl)-2-oxo-acetyl]amino]pyridine-3-carboxamide] | 100 to 1000 nM | A (an IC50 ratio greater than or equal to 10 fold) | > 1000 nM | > 10000 nM | 50 to 500 nM | > 500 nM | 50 to 500 nM |
| NC(=O)c1cncc(NC(=O)C(=O)N2CCCCC2C2CCCCC2)c1 (centres unmarked) [Compound 101, 5-(2-(2-cyclohexylpiperidin-1-yl)-2-oxoacetamido)nicotinamide] | < 100 nM | A (an IC50 ratio greater than or equal to 10 fold) | > 1000 nM | > 10000 nM | < 50 nM | 50 to 500 nM | 50 to 500 nM |
| NC(=O)c1cncc(NC(=O)C(=O)N2CCCCC2C2CCC2)c1 (centres unmarked) [Compound 103, 5-[[2-(2-cyclobutyl-1-piperidyl)-2-oxo-acetyl]amino]pyridine-3-carboxamide] | 100 to 1000 nM | A (an IC50 ratio greater than or equal to 10 fold) | > 1000 nM | > 10000 nM | < 50 nM | 50 to 500 nM | 50 to 500 nM |
| Cc1cc(NC(=O)C(=O)N2CCCCC2c2cccc3c2CC(=O)N3)cnc1N (centres unmarked) [Compound 116, N-(6-Amino-5-methyl-3-pyridyl)-2-oxo-2-[2-(2-oxoindolin-4-yl)-1-piperidyl]acetamide] | 100 to 1000 nM | A (an IC50 ratio greater than or equal to 10 fold) | > 1000 nM | > 10000 nM | 50 to 500 nM | > 500 nM | 50 to 500 nM |
| NC(=O)c1cncc(NC(=O)C(=O)N2CCCCC2c2ccccc2)c1N (centres unmarked) [Compound 119, 4-amino-5-[[2-oxo-2-(2-phenyl-1-piperidyl)acetyl]amino]pyridine-3-carboxamide] | 100 to 1000 nM | A (an IC50 ratio greater than or equal to 10 fold) | > 1000 nM | > 10000 nM | 50 to 500 nM | 50 to 500 nM | 50 to 500 nM |
| NC(=O)c1cncc(NC(=O)C(=O)N2CCCCC2c2cccs2)c1 (centres unmarked) [Compound 120, 5-[[2-Oxo-2-[2-(2-thienyl)-1-piperidyl]acetyl]amino]pyridine-3-carboxamide] | 100 to 1000 nM | A (an IC50 ratio greater than or equal to 10 fold) | > 1000 nM | > 10000 nM | < 50 nM | 50 to 500 nM | 50 to 500 nM |
| Cc1cc(NC(=O)C(=O)N2CCCCC2c2csc3ccccc23)cnc1N (centres unmarked) [Compound 123, N-(6-Amino-5-methyl-3-pyridyl)-2-[2-(benzothiophen-3-yl)-1-piperidyl]-2-oxo-acetamide] | 100 to 1000 nM | A (an IC50 ratio greater than or equal to 10 fold) | > 1000 nM | 1000 to 10000 nM | < 50 nM | 50 to 500 nM | 50 to 500 nM |
| NC(=O)c1cc(NC(=O)C(=O)N2CCCCC2c2ccccc2)cnc1N (centres unmarked) [Compound 126, 2-Amino-5-[[2-oxo-2-(2-phenyl-1-piperidyl)acetyl]amino]pyridine-3-carboxamide] | > 1000 nM | B (an IC50 ratio greater than or equal to 3 fold but lower than 10 fold) | > 1000 nM | > 10000 nM | 50 to 500 nM | > 500 nM | 50 to 500 nM |
| Cc1cc(NC(=O)C(=O)N2CCCCC2c2cccc3scnc23)cnc1N (centres unmarked) [Compound 129, N-(6-Amino-5-methyl-3-pyridyl)-2-[2-(1,3-benzothiazol-4-yl)-1-piperidyl]-2-oxo-acetamide] | > 1000 nM | B (an IC50 ratio greater than or equal to 3 fold but lower than 10 fold) | > 1000 nM | > 10000 nM | 50 to 500 nM | > 500 nM | 50 to 500 nM |
| Cc1cc(NC(=O)C(=O)N2CCCCC2c2cccc3c2ncn3C)cnc1N (centres unmarked) [Compound 132, N-(6-Amino-5-methyl-3-pyridyl)-2-[2-(1-methylbenzimidazol-4-yl)-1-piperidyl]-2-oxo-acetamide] | > 1000 nM | B (an IC50 ratio greater than or equal to 3 fold but lower than 10 fold) | > 1000 nM | > 10000 nM | 50 to 500 nM | > 500 nM | > 500 nM |
| O=C(Nc1cncc(CO)c1)C(=O)N1CCCCC1c1ccccc1 (centres unmarked) [Compound 136, N-(5-(hydroxymethyl)pyridin-3-yl)-2-oxo-2-(2-phenylpiperidin-1-yl)acetamide] | > 1000 nM | C (an IC50 ratio of less than 3 fold) | > 1000 nM | > 10000 nM | > 500 nM | > 500 nM | > 500 nM |
| COc1ncc(NC(=O)C(=O)N2CCCCC2c2ccccc2)cc1C(N)=O (centres unmarked) [Compound 138, 2-methoxy-5-(2-oxo-2-(2-phenylpiperidin-1-yl)acetamido)nicotinamide] | 100 to 1000 nM | A (an IC50 ratio greater than or equal to 10 fold) | > 1000 nM | > 10000 nM | < 50 nM | > 500 nM | 50 to 500 nM |
| Cc1cc(NC(=O)C(=O)N2CCCCC2c2cccc3ocnc23)cnc1N (centres unmarked) [Compound 140, N-(6-Amino-5-methyl-3-pyridyl)-2-[2-(1,3-benzoxazol-4-yl)-1-piperidyl]-2-oxo-acetamide] | 100 to 1000 nM | A (an IC50 ratio greater than or equal to 10 fold) | > 1000 nM | > 10000 nM | > 500 nM | > 500 nM | > 500 nM |
| Cc1cc(NC(=O)C(=O)N2CCCCC2c2cccc3[nH]cnc23)cnc1N (centres unmarked) [Compound 142, N-(6-Amino-5-methyl-3-pyridyl)-2-[2-(1H-benzimidazol-4-yl)-1-piperidyl]-2-oxo-acetamide] | > 1000 nM | B (an IC50 ratio greater than or equal to 3 fold but lower than 10 fold) | > 1000 nM | > 10000 nM | 50 to 500 nM | > 500 nM | 50 to 500 nM |
| CC1CCC2CCCCC2N1C(=O)C(=O)Nc1cncc(C(N)=O)c1 (centres unmarked) [Compound 144, 5-[2-(2-Methyl-decahydroquinolin-1-yl)-2-oxoacetamido]pyridine-3-carboxamide] | 100 to 1000 nM | A (an IC50 ratio greater than or equal to 10 fold) | > 1000 nM | > 10000 nM | < 50 nM | 50 to 500 nM | 50 to 500 nM |
| O=Cc1cncc(NC(=O)C(=O)N2CCCCC2c2ccccc2)c1 (centres unmarked) [Compound 147, N-(5-formylpyridin-3-yl)-2-oxo-2-(2-phenylpiperidin-1-yl)acetamide] | > 1000 nM | C (an IC50 ratio of less than 3 fold) | > 1000 nM | > 10000 nM | 50 to 500 nM | > 500 nM | > 500 nM |
| NC(=O)c1cncc(NC(=O)C(=O)N2CCC3(CC2)OCC2CC23)c1 (centres unmarked) [Compound 149, 5-(2-{3-Oxaspiro[bicyclo[3.1.0]hexane-2,4′-piperidine]-1′-yl}-2-oxoacetamido)pyridine-3-carboxamide] | > 1000 nM | C (an IC50 ratio of less than 3 fold) | > 1000 nM | > 10000 nM | 50 to 500 nM | > 500 nM | 50 to 500 nM |
| Cc1cnc(N)c(NC(=O)C(=O)N2CCCCC2c2ccccc2)c1 (centres unmarked) [Compound 160, N-(2-amino-5-methylpyridin-3-yl)-2-oxo-2-(2-phenylpiperidin-1-yl)acetamide] | > 1000 nM | C (an IC50 ratio of less than 3 fold) | > 1000 nM | > 10000 nM | > 500 nM | > 500 nM | > 500 nM |
